Laboratory results taken from US20250049904A1, “IMMUNOSTIMULATORY COMPOSITIONS” (VICTORIA LINK LIMITED, priority 2021, published 2025).

Experiments:
Format in all cases: in vivo, C57BL/6 mice
[1] = test system: tissue-resident memory T cells (TRM cells); assay: LPX-mRNA vaccination of mice i.v.; antigen-specific TRM, TEM and TCM cells in liver and spleen by flow cytometry; details: agonist in LPX-mOVA vaccine, OT-I transfer, liver 30 days later; for proportion of liver TRM among all vaccine-induced antigen-specific T cells (TRM cell-inducing capability): relative to α-GalCer vaccine
liver TRM cells = assay: LNP-mRNA vaccines, prime and boost; TRM cells in liver and spleen; details: i.m. and i.v.
Procedure: Vaccines were prepared with mRNA encoding OVA encapsulated in LNPs (LNP-mOVA-CI058). Groups of mice (n=5) were vaccinated twice, with an interval of either two weeks, or eight weeks, and then liver and spleen were collected for analysis of T cell responses 28 days after the last dose. (A) Percentages of antigen-specific TRM cells, TEM cells and TCM cells are shown for liver. Black bars: TRM cells; white bars: TEM cells; grey bars: TCM cells. (B) Percentages of antigen-specific TRM cells, TEM cells and TCM cells are shown for spleen. Black bars: TRM cells; white bars: TEM cells; grey bars: TCM cells. (C) Mean number of TRM cells in liver for each treatment group (±SEM); dots represent individual mice. *P<0.05.
Vaccines were prepared with mRNA encoding OVA encapsulated in LNPs (LNP-mOVA-CI536). Groups (n=9-10) of naïve C57BL/6 mice (i.e., no OT-I transfer) were vaccinated once, or twice with an interval of two weeks, with the liver and spleen collected for analysis of T cell responses 28 days after the last dose. (A) Numbers of antigen-specific TRM cells for liver. […] Data were log transformed and analysed by One-way ANOVA with Tukey's post test **P<0.01, ***P<0.001, ****P<0.0001. […]
LNP-mRNA vaccines comprising an ionizable lipid are an established formulation strategy to deliver mRNA vaccines safely and effectively. Therefore, the capacity of LNP-mRNA vaccines containing CI536 and the ionizable lipid DLin-MC3-DMA to stimulate liver TRM was evaluated. […] The memory T cell responses were assessed 28 days after the prime and boost so the impact of the second dose could be assessed. […]
Lymphocytes were stained with monoclonal antibodies for: CD8a (53-6.7), Ly5.1 (A20), CD44 (IM7), CXCR6 (SA051D1), CX3CR1 (SA011F11), from BioLegend (Australian Biosearch, Karrinyup, WA. Australia), and CD62L (MEL-14) and CD69 (H1.2F3), from eBioscience (Jomar Life Research, Scoresby, VIC, Australia). […] Single-color positive control samples were used to adjust compensation and cells were analyzed by flow cytometry on a LSR Fortessa (BD Biosciences), or LSRII SORP using Flowjo software (Tree Star Inc.).

[2] = test system: tissue-resident memory T cells (TRM cells); assay: LPX-mRNA vaccination of mice i.v.; antigen-specific TRM, TEM and TCM cells in liver and spleen by flow cytometry; details: LPX-mOVA vaccines i.v., OT-I cell transfer, 28 days after vaccination
Procedure: FIG. 1 provides a graphical representation showing that LPX-mRNA vaccines containing CI058 induce high levels of liver TRM cells. Liposomes were prepared with DOTMA and DOPE lipids and complexed with mRNA encoding chicken ovalbumin (OVA) to give vaccine LPX-mOVA. Additional vaccines were prepared by including either the prototypical NKT cell agonist α-GalCer (LPX-mOVA-α-GalCer) or the derivative CI058, which has BODIPY attached via an —S in the 6 position of the galactose (LPX-mOVA-CI058). Recipient C57BL/6 mice were transferred 50,000 naïve OVA-specific TCR-transgenic CD8+ T cells (OT-I cells) to enhance the precursor frequency of antigen-specific T cells to aid detection of vaccine-induced responses. A day later, groups of mice (n=5-6) were vaccinated intravenously (0.08 nmol) with the different vaccines; a naive mouse was left untreated. After 28 days, mice were killed and liver and spleen collected for analysis of induced T cell response by flow cytometry. Antigen-specific cells were identified using fluorescent MHC/peptide tetramers containing the targeted CD8^+ T cell epitope recognised by OT-I cells, and expression of Ly5.1, a congenic marker expressed by the OT-I mouse strain and not recipient C57BL/6 mice. The antigen-specific cells were further characterised as resident-memory T cells (TRM cells; CD8^+ Ly5.1^+ […] CD62L^low cells), effector memory T cells (TEM cells; CD8^+ Ly5.1^+ CD44^+ CD69^− CD62L^low cells) or central memory cells (TCM cells; CD8^+ Ly5.1^+ CD44^+ CD69^− CD62Lhigh cells). (A) Percentages of TRM, TEM and TCM OT-I cells in each treatment group in liver. Mean±SEM for each T cell subset are shown; statistical analysis relates only to pairwise comparisons of the percentage of TRM cells between the treatment groups. Black bars: TRM cells; white bars: TEM cells; grey bars: TCM cells. *P<0.05, **P<0.01, ***P<0.001, ****P<0.0001. One-way ANOVA. (B) Percentages of RM, TEM and TCM OT-I cells in each treatment group in spleen. (C) Mean number of TRM cells in liver for each treatment group (±SEM); dots represent individual mice. Black bars: TRM cells; white bars: TEM cells; grey bars: TCM cells. *P<0.05, **P<0.01, ***P<0.001, ****P<0.0001. One-way ANOVA.
Dose response of LPX-mOVA-α-GalCer versus LPX-mOVA-CI058 vaccines. Analysis was in C57BL/6 mice, without transfer of OT-I cells, so endogenous T cell responses were monitored on a normal T cell repertoire. Groups of 5 mice were used, and vaccines were administered intravenously. After 28 days, mice were killed and liver tissue collected for analysis of induced T cell response by flow cytometry. Antigen-specific cells were identified using fluorescent MHC/peptide tetramers, and further characterised as resident-memory T cells (TRM CD8^+ CD44^+ CD69^+ CXCR6^+ CD49a^+ CD62L^low cells), effector memory T cells (TEM CD8^+ CD44^+ CD69^− KLRG1^+ CXCR3^+ CD62L^low cells) or central memory cells (TCM CD8^+ CD44^+ CD69^− CD62L^high cells). At the same timer, NKT cells in the liver were also evaluated using fluorescent CD1d/α-GalCer tetramers. These were characterised for expression of different markers of activation, including PD-1 (only the latter is shown here). White circles: LPX-mOVA-α-GalCer; black circles: LPX-mOVA-CI058. (A) Graph showing mean number of TRM cells in liver for each treatment group (±SEM) overdose range. ****P<0.0001. (B) Graph showing mean level of expression of the “invariant” NKT cell-associated TCR for each treatment group (±SEM), defined as level of binding of fluorescent CD1d/α-GalCer tetramers and expressed as mean fluorescence index. ****P<0.0001 (C) Graph showing mean level of expression of PD-1 on NKT cells for each treatment group (±SEM). **P<0.01
To examine whether a prodrug mechanism is involved in enhanced TRM cell induction, LPX-mOVA-CI058 vaccines were compared to vaccines containing different NKT cell agonist prodrugs. […]

| SMILES | overall TRM cell accumulation in the liver [1] | proportion of liver TRM among all vaccine-induced antigen-specific T cells (TRM cell-inducing capability) [1] | further results |
| --- | --- | --- | --- |
| CCCCCCCCCCCCCCCCCCCCCCCCCC(=O)N[C@@H](CO[C@H]1OC(CSCCCCCNC(=O)CCC2=C3C(C)=CC(C)=[N+]3[B-](F)(F)n3c(C)cc(C)c32)[C@H](O)C(O)[C@@H]1O)[C@H](O)[C@H](O)CCCCCCCCCCCCCC (stereo partly drawn) [CI534] | All but two of the 6'S-substituted agonists (CI534, CI540) | significantly enhanced relative to vaccines with α-GalCer | – |
| CCCCCCCCCCCCCCCCCCCCCCCCCC(=O)N[C@@H](CO[C@H]1O[C@H](CSCC(N)=O)[C@H](O)[C@H](O)[C@H]1O)[C@H](O)[C@H](O)CCCCCCCCCCCCCC [CI536, (2S,3S,4R)-1-(6-Deoxy-6-((2-amino-2-oxoethyl)thio)-α-D-galactopyranosyloxy)-2-hexacosanoylamino-3,4-octadecandiol] | – | – | proportion of TEM in the spleen (liver TRM cells; LNP with DLin-MC3-DMA, 28 days): higher proportion of TEM; proportion of TRM in liver compared to spleen (liver TRM cells; LNP with DLin-MC3-DMA, prime or prime-boost, no T cell transfer, 28 days): increased proportion of liver TRM in the liver as compared to the spleen; number of liver TRM (liver TRM cells; boosted groups, two-week interval, vs PBS control): highest number of liver TRM compared to PBS control group |
| CCCCCCCCCCCCCCCCCCCCCCCCCC(=O)N[C@@H](CO[C@H]1OC(CSCCCCCNC(=O)OCc2c3ccccc3cc3ccccc23)[C@H](O)C(O)[C@@H]1O)[C@H](O)[C@H](O)CCCCCCCCCCCCCC (stereo partly drawn) [CI540] | All but two of the 6'S-substituted agonists (CI534, CI540) | – | – |
| CCCCCCCCCCCCCCCCCCCCCCCCCC(=O)N[C@@H](CO[C@H]1OC(CN)[C@H](O)C(O)C1O)[C@H](O)[C@H](O)CCCCCCCCCCCCCC (stereo partly drawn) [CN168] | – | significantly enhanced relative to vaccines with α-GalCer | – |
| CCCCCCCCCCCCCCCCCCCCCCCCCC(=O)N[C@@H](CO[C@H]1O[C@H](CS)[C@H](O)[C@H](O)[C@H]1O)[C@H](O)[C@H](O)CCCCCCCCCCCCCC [CN237] | – | significantly enhanced relative to vaccines with α-GalCer | – |
| CCCCCCCCCCCCCCCCCCCCCCCCCC(=O)N[C@@H](CO[C@H]1O[C@H](CO)[C@H](O)[C@H](O)[C@H]1O)[C@H](O)[C@H](O)CCCCCCCCCCCCCC [α-GalCer, reference compound] | – | – | proportion of TRM cells among antigen-specific T cells in liver and spleen [2]: low proportions of TRM cells in liver and spleen |
